In patent publication US10150780B2, “Spirocyclic heterocycle compounds useful as HIV integrase inhibitors” (Merck Sharp & Dohme Corp., priority 2014, dated 2018):
Read-outs that look alike come from different tables or passages of the source.

Tested on: HIV-1 (NL4-3 strain)
Test: Assay for Inhibition of HIV Replication (VIKING), infected MT4-GFP cells
Format: cell-based
Conditions: infected cells at 48 h / 24 h
Experimental: MT4-GFP cells (250,000 cells/ml) were bulk-infected with HIV-1 (NL4-3 strain) at low multiplicity of infection (MOI) in RPMI+10% FBS for 24 hours. Cells were then washed once in RPMI+10% FBS and resuspended RPMI+0% or +100% normal human serum (NHS). Test compounds were serial-diluted in DMSO on ECHO. The infected MT4-GFP cells were added to a 384-well poly-D-lysine coated black plate with clear bottom in which the diluted test compounds were placed. The cells were seeded at 8,000 cells per well and the final DMSO concentration was 0.4%. The infected cells (Green GFP cells) were quantified at both 24 and 48 hours post incubation using Acumen eX3. Viral reproductive ratio (R0) was determined using the number of infected cells at 48 hours divided by the number of infected cells at 24 hours. Percent viral growth inhibition was calculated by [1−(R−Rtripledrug)/(RDMSO−Rtripledrug)]*100.

[1] = Human immunodeficiency virus 1, NL43, 48 h, MT4-GFP cells infected with HIV-1 NL4-3, RPMI + 0% normal human serum, read-out: VIKING IP50 (nM) with 0% NHS
[2] = MT4-GFP cells infected with HIV-1 NL4-3, RPMI + 100% normal human serum, read-out: VIKING IP50 (nM) with 100% NHS
[3] = MT4-GFP cells infected with HIV-1 NL4-3, RPMI + 0% normal human serum, read-out: VIKING IP50 (nM) with 0% NHS
[4] = Human immunodeficiency virus 1, NL43, MT4-GFP cells infected with HIV-1 NL4-3, RPMI + 100% normal human serum, read-out: VIKING IP50 (nM) with 100% NHS

`COC1N(N(C)C)C(=O)c2c(O)c(=O)c(C(=O)NCc3ccc(F)cc3F)cn2C12CC2` (single isomer, unassigned) [Compound 1] showed an IC50 [1] of 1.9 nM and an IC50 [2] of over 8000 nM.

`COC1N(N(C)C)C(=O)c2c(O)c(=O)c(C(=O)NCc3ccc(F)cc3F)cn2C12CC2` (single isomer, unassigned) [Compound 2] gave an IC50 [3] of 1.7 nM and an IC50 [2] of 153 nM.

With `O=C(NCc1ccc(F)cc1F)c1cn2c(c(O)c1=O)C(=O)N1CCCOC1C21CC1` (single isomer, unassigned) [Compound 3] the IC50 [1] was 0.6 nM and the IC50 [2] was 3370 nM.

`O=C(NCc1ccc(F)cc1F)c1cn2c(c(O)c1=O)C(=O)N1CCCOC1C21CC1` (single isomer, unassigned) [Compound 4] was tested, and the IC50 [3] was 0.5 nM and the IC50 [2] was 285 nM.

With `O=C(NCc1cccc(Cl)c1F)c1cn2c(c(O)c1=O)C(=O)N1CCCOC1C21CC1` (single isomer, unassigned) [Compound 5] the IC50 [1] was 0.8 nM and the IC50 [2] was over 8000 nM.

In the case of `O=C(NCc1cccc(Cl)c1F)c1cn2c(c(O)c1=O)C(=O)N1CCCOC1C21CC1` (single isomer, unassigned) [Compound 6], the IC50 [3] was 0.6 nM and the IC50 [2] was 505 nM.

In the case of `O=C(NCc1cccc(Cl)c1F)c1cn2c(c(O)c1=O)C(=O)N1CCOC1C21CC1` (single isomer, unassigned) [Compound 10], the IC50 [1] was 0.4 nM and the IC50 [2] was 3900 nM.

For `O=C(NCc1cccc(Cl)c1F)c1cn2c(c(O)c1=O)C(=O)N1CCOC1C21CC1` (single isomer, unassigned) [Compound 11], the IC50 [3] was 0.4 nM and the IC50 [2] was over 8000 nM.

`O=C(NCc1cccc(Cl)c1F)c1cn2c(c(O)c1=O)C(=O)N1CCCCOC1C21CC1` (single isomer, unassigned) [Compound 12] gave an IC50 [3] of 0.5 nM and an IC50 [2] of 92.3 nM.

With `O=C(NCc1cccc(Cl)c1F)c1cn2c(c(O)c1=O)C(=O)N1CCCCOC1C21CC1` (single isomer, unassigned) [Compound 13] the IC50 [3] was 1.3 nM and the IC50 [2] was 4100 nM.

Work on `CN1CCCN2C(=O)c3c(O)c(=O)c(C(=O)NCc4cccc(Cl)c4F)cn3C3(CC3)C12` (single isomer, unassigned) [Compound 14] yielded an IC50 [1] of 1 nM and an IC50 [2] of 2340 nM.

Compound `CN1CCCN2C(=O)c3c(O)c(=O)c(C(=O)NCc4cccc(Cl)c4F)cn3C3(CC3)C12` (single isomer, unassigned) [Compound 15] has an IC50 [3] of 0.6 nM and an IC50 [2] of 71.5 nM.

Compound `CN(C)N1CC2(COC2)n2cc(C(=O)NCc3ccc(F)cc3F)c(=O)c(O)c2C1=O` [Compound 7] has an IC50 [1] of 4 nM and an IC50 [4] of 1280 nM.

Work on `CN(C)N1CC2(CCOCC2)n2cc(C(=O)NCc3ccc(F)cc3F)c(=O)c(O)c2C1=O` [Compound 8] yielded an IC50 [1] of 19 nM and an IC50 [4] of 1510 nM.

With `COC1N(N(C)C)C(=O)c2c(O)c(=O)c(C(=O)NCc3ccc(F)cc3F)cn2C12COC2` (stereo not drawn) [Compound 9] the IC50 [1] was 7 nM and the IC50 [4] was 235 nM.
